Test results: BigSolDB 2.1

OC(Cn1cncn1)(Cn1cncn1)c1ccc(F)cc1F
solubility (mole fraction)
Conditions | 293.15 K | 298.15 K | 303.15 K | 308.15 K | 313.15 K | 318.15 K | 323.15 K
in ethanol | 0.0105 | 0.0123 | 0.014 | 0.0157 | 0.0183 | 0.023 | 0.0282
in water | 7.76e-05 | 7.99e-05 | 8.28e-05 | 8.58e-05 | 9.06e-05 | 9.59e-05 | 0.000104
